Laboratory results published in PMC5761724 (Journal of medicinal chemistry, 2017).

Experiments:
Rpn11 = Rpn11 (Homo sapiens, UniProt O00487); test: Rpn11 fluorescence polarization deubiquitination assay; assay type: biochemical
Csn5 = Csn5 (Homo sapiens, UniProt Q92905); test: CSN5 activity assay; assay type: biochemical
AMSH = target: T1, AMSH (Homo sapiens, UniProt O95630); test: AMSH activity assay; assay type: biochemical
T1 sequence (O95630 1-424): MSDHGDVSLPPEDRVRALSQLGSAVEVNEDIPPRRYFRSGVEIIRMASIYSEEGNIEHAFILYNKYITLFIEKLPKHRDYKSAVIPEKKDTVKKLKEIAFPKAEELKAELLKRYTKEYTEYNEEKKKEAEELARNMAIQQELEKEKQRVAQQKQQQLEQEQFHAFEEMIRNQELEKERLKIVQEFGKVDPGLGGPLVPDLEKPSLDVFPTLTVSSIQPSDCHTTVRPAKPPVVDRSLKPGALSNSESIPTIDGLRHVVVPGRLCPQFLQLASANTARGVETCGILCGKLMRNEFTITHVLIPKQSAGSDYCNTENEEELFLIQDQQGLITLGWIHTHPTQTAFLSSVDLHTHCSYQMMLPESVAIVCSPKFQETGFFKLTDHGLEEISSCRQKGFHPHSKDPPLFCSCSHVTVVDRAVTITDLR

[1] = test system: Ub^G76V-GFP Hela cells (proteasome activity); test: Ub^G76V-GFP degradation assay; assay type: cell-based; conditions: Homo sapiens, read-out: Ub^G76VGFP Hela Cell IC50
Cytotoxicity assay = assay type: cell-based; conditions: human, HCT 116 cells
BRISC complex = BRISC complex (Homo sapiens, UniProt P46736); test: BRISC activity assay; assay type: biochemical; conditions: Figure S1
[2] = HCT 116 Cytotoxicity IC50, Table 2

In the case of `O=C(NCCc1nccs1)c1cnc2c(S)ccnc2c1` [Compound 50f, 8-Mercapto-N-(2-(thiazol-2-yl)ethyl)-1,5-naphthyridine-3-carboxamide], the IC50 (Rpn11; Rpn11 IC50) is reported as ~82 µM, the IC50 (Rpn11; Rpn11 IC50, Table 5, control compounds) is reported as 82 ± 14 µM and the IC50 (Csn5) is reported as > 100 µM. For the same compound, the IC50 (AMSH) was > 100 µM and the IC50 [1] was > 100 µM.
In the case of `CSc1cccc2cc(C(=O)NCCc3nccs3)cnc12` [Compound 48, 8-(Methylthio)-N-(2-(thiazol-2-yl)ethyl)quinoline-3-carboxamide], the IC50 [1] is reported as > 100 µM.
With `Cc1ccc2cccc(S)c2n1` [Compound 9c, 2-Methylquinoline-8-thiol] the IC50 at 72 h (Cytotoxicity assay; [2]) was > 50 µM.
In the case of `Cc1ccnc2c(S)cccc12` [Compound 11c, 4-Methylquinoline-8-thiol], the IC50 at 72 h (Cytotoxicity assay; [2]) is reported as > 10 µM.
For `Sc1cccc2ccccc12` [Compound 2], the IC50 at 72 h (Cytotoxicity assay; HCT 116 Cytotoxicity, Table 1) was > 100 µM.
In the case of `Sc1cccc2cccnc12` [8TQ, 8-thioquinoline], the “inhibition of Rpn11 in MBP library screen” value (Rpn11; fragment concentration of 200 μM) is reported as “essentially complete inhibition”, the ligand efficiency (Rpn11; from Rpn11 IC50) is reported as 0.69 and the IC50 at 72 h (Cytotoxicity assay; HCT 116 Cytotoxicity, Table 1) is reported as 1.3 µM. The “inhibition of BRISC” value (BRISC complex) was “significant inhibition”.
With `Cc1cccc2cccnc12` [Compound 3] the IC50 at 72 h (Cytotoxicity assay; HCT 116 Cytotoxicity, Table 1) was > 100 µM.
With `Sc1ccnc2cccnc12` [Compound 8e, 1,5-Naphthyridine-4-thiol] the “fold weaker Rpn11 activity compared to 8TQ” value (Rpn11) was ~ 6 fold.
With `O=C(NCCc1nccs1)c1cnc2c(O)cccc2c1` [Compound 47, 8-Hydroxy-N-(2-(thiazol-2-yl)ethyl)quinoline-3-carboxamide] the IC50 [1] was > 100 µM.
In the case of `Sc1cccc2ncccc12` [Compound 7c, Quinoline-5-thiol], the IC50 at 72 h (Cytotoxicity assay; HCT 116 Cytotoxicity, Table 1) is reported as > 100 µM.
For `CSc1cccc2cccnc12` [Compound 6, 8-(Methylthio)quinoline], the IC50 at 72 h (Cytotoxicity assay; HCT 116 Cytotoxicity, Table 1) was > 100 µM.
